Reference: US20060135415A1, “Immunomodulation and effect on cell processes relating to serotonin family receptors and the blood-brain barrier” (priority 2002, published 2006)
Entries after “also recorded” stand apart in the source; their conditions may differ.

Key:
[1] = system: ConA stimulated human lymphocytes; test: Human mitogenic (ConA) stimulation, 3H-thymidine incorporation; type: cell-based; conditions: for activation / proliferative response: 5 μg/ml ConA, harvest 72 hours, drug titration (FIGS. 7A, 8A, 9A, 17, 33)
Description: Blood from healthy volunteers was drawn using venipuncture, using Vacutainer collection sets and heparinized collection vials. The blood was diluted 1:1 using HBSS to a total volume of 30 ml in 50 ml conical tubes (Fisher Scientific, Co., Pittsburgh, Pa.). […] Cells from the buffy coats were collected and the residual Histopaque was washed away using repeated centrifugations in HBSS. After washes, cells were resuspended at 5 million cells per ml in RPMI, supplemented with 2% FBS. To remove adherent cells, the suspension was plated onto a 6 well flat-bottom plate (Corning Costar), 3 ml/well, and incubated for 2 hours at 37° C., 5% CO2. Non-adherent cells were harvested after this incubation, were counted and resuspended in RPMI supplemented with 10% human serum (Sigma).
All drugs were pre-plated before the cell suspension was added onto each well of a 96-well round-bottom plate. All experimental conditions were assayed in at least triplicate. Cells suspended in RPMI supplemented with 10% human serum were plated at 100,000 cells per well to a final volume of 200 μl. […] Control samples received no ConA stimulation. The plates were incubated at 37° C. and 5% CO2.

RPMI 8226 cells [2] = test: DNA fragmentation (internucleosomal laddering); type: cell-based, human; conditions: RPMI 8226 cells (FIGS. 26, 35)
Description: Cells (8×10^5) were washed with ice-cold PBS following experimental treatments and pelleted by centrifugation (500×g, 5 min). Cell pellets were incubated for 5 minutes on ice in lysis buffer (1% IGEPAL-CA630, 20 mM EDTA, 50 mM Tris-HCL, pH 7.5). Lysates were centrifuged at about 1,600×g for 5 minutes. 501 μL of lysis buffer was added to the supernatant. The extract was brought to 1% SDS and treated for 2 hours with 5 μg/μL Rnase A (57° C.) followed by treatment with 2.5 μg/μL proteinase K for 2 hours (37° C.). After digestion of RNA and protein, half volume of 10 M ammonium acetate was added and the DNA was precipitated using 2.5 volumes of ethanol, washed in 70% ethanol, air-dried, and dissolved in TE buffer. DNA fragments were separated by electrophoresis in 1.5% agarose gels using a protocol adapted from Siegel et al. (1998, Proc. Natl. Acad. Sci. USA 95:162-166).

RPMI 8226 cells [3] = test: Annexin V / propidium iodide flow cytometry; type: cell-based, human; conditions: RPMI 8226 cells (FIGS. 27, 34)
Description: Early apoptotic cells were detected by co-staining cells previously exposed to each experimental condition. Briefly, cells were incubated during a time course in the presence of various concentrations of each experimental or control apoptosis inducing agent as set forth elsewhere herein. After incubation, the cells were washed with ice-cold PBS, stained with Annexin V-Alexa flour 488 and Propidium Iodide (Molecular Probes, Eugene, Oreg.) and analyzed by dual-color flow cytometry. Annexin V^+ and PI^− cells were considered as early apoptotic cells. The known terminal differentiator of myeloma cells, HMBA (hexamethylene-bis-acetamide), and the topoisomerase inhibitor, camtothecin, were used as positive controls for apoptosis at 5 mM and 2 μM, respectively.
Therefore, the degree of apoptosis in a cell population can be ascertained by assessing the presence of annexin-V positive cells and the absence of propidium iodide (PI) staining cells (necrotic cells). […] The extent of apoptosis was determined by analyzing flow cytometry data and generating FACS plots, which were then gated to include only the population of cells which were PI negative (non-necrotic). The degree of annexin-V positive cells was then measured in this PI negative cell population as a measure of apoptosis (FIG. 34).

[4] = In vivo screen for sedation / CNS effects after i.v. injection; parameters: species or system BALB/c mice
Description: Both QSS5 and QSS6 were assayed in vivo for the immediate ‘sleep’ effect.

[5] = system: Chronic Lymphocytic Leukemia tumor cells; test: Ex planted bone marrow aspirates from a CLL patient; type: cell-based, human
human 5HT2C-INI receptor = molecular target: T1, human 5HT2C-INI receptor (Homo sapiens, UniProt P28335); conditions: HEK-293 cells, data from Rauser et al. 2001 (FIG. 38); cited from earlier work
T1 sequence (P28335 33-458): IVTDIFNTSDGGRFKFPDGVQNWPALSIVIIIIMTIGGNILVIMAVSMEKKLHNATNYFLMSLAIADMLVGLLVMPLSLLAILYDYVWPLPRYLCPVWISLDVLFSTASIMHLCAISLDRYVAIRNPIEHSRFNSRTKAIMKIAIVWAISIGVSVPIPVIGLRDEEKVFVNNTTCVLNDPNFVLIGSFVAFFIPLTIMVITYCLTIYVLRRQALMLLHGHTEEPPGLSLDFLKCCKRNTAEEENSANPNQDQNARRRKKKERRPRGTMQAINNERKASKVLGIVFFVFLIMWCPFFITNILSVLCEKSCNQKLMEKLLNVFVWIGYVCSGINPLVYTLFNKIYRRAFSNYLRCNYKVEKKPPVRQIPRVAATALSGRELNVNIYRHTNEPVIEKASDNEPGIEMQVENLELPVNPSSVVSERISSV

[6] = system: allogeneic stimulation of human lymphocytes; test: Human mixed lymphocyte reaction (allogeneic stimulation), 3H-thymidine; type: cell-based
Text: Blood from two healthy, non-related, donors was taken as described above. Peripheral blood mononuclear cells were isolated as described previously elsewhere. The adherent cells were separated from the suspension cells as described previously for both donors. Suspension cells from both donors (donors A and B) were used as responders. The remaining adherent cells from each of the donors were used as stimulators against a different donor (suspension A against adherent B and adherent A against suspension B). The stimulator cells were irradiated at 35 Gy. Drugs were pre-plated onto 96 well, U-bottom plates in triplicate. 200,000 “stimulator” cells in RPMI supplemented with 10% human serum were then plated in each well. 200,000 “responder” cells in the same medium were then plated over stimulators to a final volume of 200 μl/well. Background controls received either no stimulator cells, or no responder cells. The plates were incubated at 37° C. and 5% CO2. 1 μCi of tritiated thymidine was added to each well after 4.5 days, and the plates were harvested 12 hours later.

[7] = system: RPMI 8226 multiple myeloma cells; test: RPMI 8226 cell viability and proliferation (trypan blue, MTT, 3H-thymidine); type: cell-based, human; conditions: 3H-thymidine uptake, drug titration (FIGS. 19-25, 31, 32)
Description: The human plasmacytoma (multiple myeloma) cell line, RPMI 8226 (American Type Culture Collection, Manassas, Va.), was cultured in RPMI 1640 supplemented with 10 mM HEPES, 1 mM sodium pyruvate, 4.5 g/L glucose, 1.5 g/L bicarbonate and 20% FBS (non-heat inactivated).
Cell proliferation was assayed by three methods—Trypan Blue Exclusion was used to quantify the number of viable cells in culture; 3-(4,5-dimethylthiazol-2-yl)-2,5-diphenyl tetrazolium bromide (MTT) reduction was used to assay mitochondrial activity (and thus cell viability); and ^3H-Thymidine uptake was employed to assay for active DNA synthesis.
Three separate indicators of cell proliferation were employed to study the effects of 5-HT receptor modulating agents on the human multiple myeloma cell line, RPMI 8226. Cells were plated at 4 separate densities and were treated with LY53587 (an antagonist of the 5-HT2A/2B/2C receptors) at a range of concentrations. The exclusion of trypan blue dye was used as an indicator of cell viability. Cell numbers were then plotted against the concentration of drug added.
MTT reduction was also used as an indicator of cell viability (more specifically, mitochondrial activity). Absorbance values at OD570 were then plotted against drug concentration. Finally, DNA synthesis was assayed, through the measurement of ^3H-thymidine uptake, and counts per minute (CPMs) were plotted against drug concentration.
Culturing and administration of drugs and ^3H-thymidine were performed as described elsewhere herein.

RPMI-8226 cells = test: Cytospin histochemistry (H&E, bis-benzamide) for chromatin; type: cell-based, human; conditions: 9 hour treatments; 50 μM SB compounds, 2 μM camptothecin (FIGS. 28, 29)
Description: 2.0×10^5 RPMI-8226 cells were cultured, in 6-well culture plates, in the presence of the indicated drug concentrations, in a total of 5 mL RPMI-1640 supplemented with 10% FBS. Each well was harvested in its entirety and divided into two identical samples for cytospins.
1.0×10^5 RPMI-8226 cells from each treatment group were loaded into Cyto-funnels and centrifuged at 500 rpm for 4 minutes with medium acceleration. Slides were then fixed through graded methanol in PBS (100%, 5 minutes; 80%, 5 minutes; 50%, 5 minutes), washed for 5 minutes in PBS and stored in PBS at 4° C. until stained.
Cytospun slides were stained with Hematoxylin and Eosin, followed by the nuclear stain, bis-benzamide, rinsed and mounted according to standard staining protocols. Slides were visualized under both brightfield and fluorescent light to generate matched images of the same slide field (see, e.g., FIGS. 28 and 29).

cells = test: Cell morphology change on inhibition of serotonergic signalling; type: cell-based; conditions: after 24 hours of treatment (FIG. 30)
Description: Briefly, cells were incubated with a 5-HTR antagonist (e.g., a selective type 1B inhibitor SD 216641) and the effects of treatment were assessed after 24 hours. […] For instance, detection of cell changes can be assessed using optical instruments (electron and light microscopy, as well as fluorescence activated cell sorting, and the like), or any other device that assesses and detects changes in cell size, density, morphology, and the like. Such devices are well known in the art and are not recounted here.

AKT = test: Western blot of phospho-(ser473)-AKT; type: cell-based, human; conditions: RPMI-8226 cells, 0, 6.25, 12.5, 25 μM for 3 hours (FIG. 37)
Description: 5×10^6 cells RPMI-8226 cells were treated with 0, 6.25, 12.5, and 25 μM SB216641 for 3 hours. Cells were lysed in lysis buffer (1% IGEPAL CA-635, 150 mM NaCl, 20 mM Tris-Cl pH 7.4, 1 mM PMSF, 1 mM EGTA, 1 mM NaF, 1 μg/mL aprotinin, 10 μg/mL leupeptin, 1 mM Na2OVa, 5 mM BGP) on ice for 15 minutes followed by centrifugation for 10 min to clear the lysate of membrane fragment. Supernatants were collected and protein concentrations determined with the BioRad Detergent Compatible Kit (Hercules, Calif.).
One-hundred micrograms of protein were loaded into each lane and separated through a 4% SDS-PAGE stacking gel and a 12% SDS-PAGE resolving gel. Proteins were electro-transferred to a 0.2 μm nitrocellulose membrane in transfer buffer (25 mM Tris, 192 mM glycine, 20% methanol, 0.1% SDS). Membranes were immuno-blotted with an anti-phosphoAkt antibody (New England Biolabs, Beverly, Mass.) to the serine-473 phosphorylation residue required for AKT activation and any antibody bound was visualized using an enhanced chemiluminescent system.

IC50 ([1]; ConA stimulation, read-out: apparent IC50) | IC50 ([6]; allogeneic stimuli (weaker signal strength), read-out: apparent IC50) | Compound | activation / proliferative response [1] | in vitro activation / proliferation of (helper) T cells ([1]; in vitro) | DNA laddering (RPMI 8226 cells [2]) | apoptosis, annexin-V positive / PI negative cells (RPMI 8226 cells [3]) | duration of sleep ([4]; 15 mg/kg i.v. tail vein, BALB/c mice) | sedation / abnormal behavior ([4]; 15 mg/kg i.v. tail vein, BALB/c mice, observed over 72 hour period) | sedative effect ([4]; intravenous injection in an animal) | tumor cell burden [5] | inverse agonism / inhibition of 5-HT 2C receptor (human 5HT2C-INI receptor) | activation / proliferative response ([6]; allogeneic stimulation, harvest 120 hours, drug titration (FIGS. 7B, 8B, 9B)) | growth / proliferation of RPMI 8226 cells [7] | chromatin condensation / fragmentation (apoptosis) (RPMI-8226 cells) | change in cell morphology (cells) | phospho-(ser473)-AKT level (AKT) | phospho-(ser473)-AKT level (AKT; listed as SB216641)
 |  | OCCN1CCN(CCCN2c3ccccc3Sc3ccc(C(F)(F)F)cc32)CC1 [Fluphenazine] | dramatic and dose-dependent decrease in proliferation | inhibits T cell responses | increase in DNA laddering over control cell extracts | significantly greater degree of apoptosis than any of the control cell populations | approximately 10 hours | instantly sedated | strong sedative, inducing sleep in an animal before the needle is withdrawn from the vein | reduces the tumor cell burden | potent inverse agonist; also recorded: effective inhibitor (inverse agonist) |  |  |  |  |  | 
~200 nM | ~50 nM | COc1ccc(NC(=O)c2ccc(-c3ccc(-c4noc(C)n4)cc3C)cc2)cc1OCCN(C)C [SB 216641] | complete inhibition of the activation response |  | increase in DNA laddering over control cell extracts |  |  |  |  |  |  | complete inhibition of the activation response | completely inhibited the growth of the cancer cells | Extensive chromatin condensation and nuclear fragmentation; also recorded: induced programmed cell death comparable to that induced by the topoisomerase I inhibitor, camptothecin | an increase in cell size | down-regulates the activity of AKT | dose dependant decrease in phosphor-(ser473)-AKT
